Results on 37 molecules are retold here after US9802960B2 (MILLENNIUM PHARMACEUTICALS, INC., priority 2014, dated 2017).

The target of one assay is Human VPS34 (Homo sapiens (Human), UniProt Q8NEB9). Description: Human VPS34 enzyme assay (Adapta TR-FRET). In kind it is biochemical. As to conditions: compound concentration 1.11 μM.
Human VPS34, sequence (Q8NEB9 whole entry): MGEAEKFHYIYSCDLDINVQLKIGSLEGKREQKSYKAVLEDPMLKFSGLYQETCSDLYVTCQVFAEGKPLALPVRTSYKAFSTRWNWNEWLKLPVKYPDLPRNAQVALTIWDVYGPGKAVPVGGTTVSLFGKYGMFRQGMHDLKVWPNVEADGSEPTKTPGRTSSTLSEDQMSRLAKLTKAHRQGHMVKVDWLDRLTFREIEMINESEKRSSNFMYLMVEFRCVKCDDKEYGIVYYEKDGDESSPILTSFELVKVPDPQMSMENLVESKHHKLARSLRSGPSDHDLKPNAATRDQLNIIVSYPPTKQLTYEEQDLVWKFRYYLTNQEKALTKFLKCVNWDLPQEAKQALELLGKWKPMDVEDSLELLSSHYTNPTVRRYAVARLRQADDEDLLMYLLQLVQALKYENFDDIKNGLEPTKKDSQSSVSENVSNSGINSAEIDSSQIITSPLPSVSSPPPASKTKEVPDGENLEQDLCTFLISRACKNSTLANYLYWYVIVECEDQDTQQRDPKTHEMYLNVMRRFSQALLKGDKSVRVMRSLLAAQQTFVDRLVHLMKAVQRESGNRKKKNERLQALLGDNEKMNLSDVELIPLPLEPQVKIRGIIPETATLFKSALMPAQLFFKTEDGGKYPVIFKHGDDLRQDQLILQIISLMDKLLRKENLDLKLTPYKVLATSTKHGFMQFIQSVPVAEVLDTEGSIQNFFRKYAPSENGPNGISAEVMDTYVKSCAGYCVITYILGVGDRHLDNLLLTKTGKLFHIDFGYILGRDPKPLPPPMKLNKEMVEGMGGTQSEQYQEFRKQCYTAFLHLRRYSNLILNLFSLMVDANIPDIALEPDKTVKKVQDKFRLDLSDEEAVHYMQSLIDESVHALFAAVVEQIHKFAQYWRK
With `CC(=O)Nc1cc(-c2ccnc(Nc3ccnc(C4CC4)n3)c2)cn2nccc12` [Compound I-371, N-(6-{2-[(2-cyclopropylpyrimidin-4-yl)amino]pyridin-4-yl}pyrazolo[1,5-a]pyridin-4-yl)acetamide], the “Percent Inhibition” value is reported as >99%.

As for `CC(=O)Nc1cc(-c2cnc(Cl)c(NS(=O)(=O)N(C)C)c2)ccn1` [Compound I-372, N-{6-chloro-5-[(dimethylsulfamoyl)amino]-3,4′-bipyridin-2′-yl}acetamide], the “Percent Inhibition” value was >99%.

Still in this assay, the particulars now being: compound concentration 1.11 μM; read-out: Percent Inhibition.
In the case of `CCCCS(=O)(=O)Nc1cc(-c2ccnc(NC(C)=O)c2)cnc1C` [Compound I-373, N-{5-[(butylsulfonyl)amino]-6-methyl-3,4′-bipyridin-2′-yl}acetamide], the inhibition at 1.11 µM was > 99%.

As to `CC(=O)Nc1cc(-c2cnc(C)c(NS(=O)(=O)N3CCC(F)(F)CC3)c2)ccn1` [Compound I-374, N-(5-{[(4,4-difluoropiperidin-1-yl)sulfonyl]amino}-6-methyl-3,4′-bipyridin-2′-yl)acetamide], the inhibition at 1.11 µM was > 99%.

`COc1nc(C)nc(Nc2cc(-c3cnc(C)c(NS(=O)(=O)c4ccc(F)cc4F)c3)ccn2)n1` [Compound I-375, 2,4-difluoro-N-{2′-[(4-methoxy-6-methyl-1,3,5-triazin-2-yl)amino]-6-methyl-3,4′-bipyridin-5-yl}benzenesulfonamide]: the inhibition at 1.11 µM was found to be 99%.

As for `CC(=O)Nc1cc(-c2cnc3c(c2)S(=O)(=O)N(C24CC(C2)C4)CCO3)ccn1` [Compound I-376, N-{4-[2-(bicyclo[1.1.1]pent-1-yl)-1,1-dioxido-3,4-dihydro-2H-pyrido[2,3-b][1,4,5]oxathiazepin-8-yl]pyridin-2-yl}acetamide], the inhibition at 1.11 µM came out at 94%.

Turning to `CC(=O)Nc1cc(-c2cnc(C)c(NS(=O)(=O)c3cccc(F)c3F)c2)ccn1` [Compound I-377, N-(5-{[(2,3-difluorophenyl)sulfonyl]amino}-6-methyl-3,4′-bipyridin-2′-yl)acetamide], the inhibition at 1.11 µM was determined as 95%.

As for `Cc1nccc(Nc2cc(-c3cnc4c(c3)C(=O)N(Cc3ccccc3)CC4)ccn2)n1` [Compound I-378, 6-benzyl-3-[2-[(2-methylpyrimidin-4-yl)amino]-4-pyridyl]-7,8-dihydro-1,6-naphthyridin-5-one], the inhibition at 1.11 µM came out at 66%.

Consider `Cc1nccc(Nc2cc(-c3cnc(C)c(OCCN(C)C)c3)ccn2)n1` [Compound I-379, 5-[2-(dimethylamino)ethoxy]-6-methyl-N-(2-methylpyrimidin-4-yl)-3,4′-bipyridin-2′-amine], for which the inhibition at 1.11 µM was 47%.

Turning to `CC(=O)Nc1cc(-c2cnc(C#N)c(N3CCCCC3C)c2)ccn1` (stereo not shown) [Compound I-380, N-[6-cyano-5-(2-methylpiperidin-1-yl)-3,4′-bipyridin-2′-yl]acetamide], the inhibition at 1.11 µM came out at 95%.

For the molecule `Cc1nccc(Nc2cc(-c3cnc(Cl)c(NS(=O)(=O)N(C)C)c3C)ccn2)n1` [Compound I-381, N′-{6-chloro-4-methyl-2′-[(2-methylpyrimidin-4-yl)amino]-3,4′-bipyridin-5-yl}-N,N-dimethylsulfuric diamide], the inhibition at 1.11 µM was > 99%.

As to `Cc1nc(Nc2cc(-c3cnc(C)c(NS(=O)(=O)c4ccc(F)cc4F)c3)ccn2)nc(C2CC2)n1` [Compound I-382, N-{2′-[(4-cyclopropyl-6-methyl-1,3,5-triazin-2-yl)amino]-6-methyl-3,4′-bipyridin-5-yl}-2,4-difluorobenzene sulfonamide], the inhibition at 1.11 µM was > 99%.

Consider `CCOC(=O)Nc1cc(-c2cnc(Cl)c(NS(=O)(=O)c3ccc(F)cc3F)c2C)ccn1` [Compound I-383, ethyl (6-chloro-5-{[(2,4-difluorophenyl)sulfonyl]amino}-4-methyl-3,4′-bipyridin-2′-yl)carbamate], for which the inhibition at 1.11 µM was determined as 91%.

Turning to `CC(=O)Nc1cc(-c2cncc(N(CCO)S(=O)(=O)c3ccc(F)cc3F)c2)ccn1` [Compound I-384, N-(5-{[(2,4-difluorophenyl)sulfonyl](2-hydroxyethyl)amino}-3,4′-bipyridin-2′-yl)acetamide], the inhibition at 1.11 µM stood at 73%.

With `CC(=O)Nc1cc(-c2cnc(C)c(N3CCN(C)S3(=O)=O)c2)ccn1` [Compound I-386, N-[6-methyl-5-(5-methyl-1,1-dioxido-1,2,5-thiadiazolidin-2-yl)-3,4′-bipyridin-2′-yl]acetamide], the inhibition at 1.11 µM is 96%.

For `CC(=O)Nc1cc(-c2cnc(C)c(N3CCCNS3(=O)=O)c2)ccn1` [Compound I-387, N-[5-(1,1-dioxido-1,2,6-thiadiazinan-2-yl)-6-methyl-3,4′-bipyridin-2′-yl]acetamide], the inhibition at 1.11 µM is > 99%.

Turning to `Cc1ncc(-c2ccnc(NC(=O)C3CC3)c2)cc1C(=O)N(C)C12CC(C1)C2` [Compound I-388, N-(bicyclo[1.1.1]pent-1-yl)-2′-[(cyclopropylcarbonyl)amino]-N,6-dimethyl-3,4′-bipyridine-5-carboxamide], the inhibition at 1.11 µM is 98%.

As to `CCOC(=O)Nc1cc(-c2cnc(C)c(NS(=O)(=O)c3ccc(F)cc3F)c2)ccn1` [Compound I-389, ethyl (5-{[(2,4-difluorophenyl)sulfonyl]amino}-6-methyl-3,4′-bipyridin-2′-yl)carbamate], the inhibition at 1.11 µM stood at 95%.

For the molecule `Cc1ccc(Oc2cc(-c3ccnc(Nc4ccnc(C)n4)c3)cnc2C)nc1` [Compound I-390, 6-methyl-5-[(5-methylpyridin-2-yl)oxy]-N-(2-methylpyrimidin-4-yl)-3,4′-bipyridin-2′-amine], the inhibition at 1.11 µM stood at 98%.

Turning to `CC(=O)Nc1cc(-c2cncc(S(=O)(=O)N3CC(F)(F)C3)c2)ccn1` [Compound I-391, N-{5-[(3,3-difluoroazetidin-1-yl)sulfonyl]-3,4′-bipyridin-2′-yl}acetamide], the inhibition at 1.11 µM is > 99%.

`CC(=O)Nc1cc(-c2cnc(C)c(Nc3nc4ccccc4o3)c2)ccn1` [Compound I-392, N-[5-(1,3-benzoxazol-2-ylamino)-6-methyl-3,4′-bipyridin-2′-yl]acetamide]: the inhibition at 1.11 µM was 82%.

Turning to `CC(=O)Nc1cc(-c2cncc(NS(=O)(=O)c3ccc(F)cc3F)c2Cl)ccn1` [Compound I-394, N-(4-chloro-5-{[(2,4-difluorophenyl)sulfonyl]amino}-3,4′-bipyridin-2′-yl)acetamide], the inhibition at 1.11 µM is > 99%.

As for `CC(=O)Nc1cc(-c2cnc(C)c(S(N)(=O)=O)c2)ccn1` [Compound I-395, N-(6-methyl-5-sulfamoyl-3,4′-bipyridin-2′-yl)acetamide], the inhibition at 1.11 µM is > 99%.

On to `CC(=O)Nc1cc(-c2cncc(S(=O)(=O)NC3CCC3)c2)ccn1` [Compound I-396, N-[5-(cyclobutylsulfamoyl)-3,4′-bipyridin-2′-yl]acetamide], for which the inhibition at 1.11 µM was found to be 94%.

Consider `CC(=O)Nc1cc(-c2cncc(N(C)C(=O)c3ccc(F)cc3F)c2)ccn1` [Compound I-397, N-(2′-acetamido-3,4′-bipyridin-5-yl)-2,4-difluoro-N-methylbenzamide], for which the inhibition at 1.11 µM turned out to be 100%.

With `CC(=O)Nc1cc(-c2cnc(C)c(N(C)C(=O)c3ccc(F)cc3F)c2)ccn1` [Compound I-398, N-(2′-acetamido-6-methyl-3,4′-bipyridin-5-yl)-2,4-difluoro-N-methylbenzamide], the inhibition at 1.11 µM is 93%.

Take `CC(=O)Nc1cc(-c2cnc(Cl)c(NS(=O)(=O)c3ccc(Cl)cc3F)c2C)ccn1` [Compound I-399, N-(6-chloro-5-{[(4-chloro-2-fluorophenyl)sulfonyl]amino}-4-methyl-3,4′-bipyridin-2′-yl)acetamide]: the inhibition at 1.11 µM worked out at 100%.

For the molecule `CC(=O)Nc1cc(-c2cnc(Cl)c(NS(=O)(=O)c3cc(Cl)ccc3Cl)c2C)ccn1` [Compound I-401, N-(6-chloro-5-{[(2,5-dichlorophenyl)sulfonyl]amino}-4-methyl-3,4′-bipyridin-2′-yl)acetamide], the inhibition at 1.11 µM was > 99%.

For `Cc1nccc(Nc2cc(-c3cnc(Cl)c(C(=O)O)c3C)ccn2)n1` [Compound I-402, 6-chloro-4-methyl-2′-[(2-methylpyrimidin-4-yl)amino]-3,4′-bipyridine-5-carboxylic acid], the inhibition at 1.11 µM was 93%.

As for `CC(=O)Nc1cc(-c2cnc(Cl)c(S(=O)(=O)N[C@@H](CO)c3ccccc3)c2)ccn1` [Compound I-403, N-(6-chloro-5-{[(1R)-2-hydroxy-1-phenylethyl]sulfamoyl}-3,4′-bipyridin-2′-yl)acetamide], the inhibition at 1.11 µM was 92%.

As to `CC(=O)Nc1cc(-c2cc(NS(=O)(=O)c3ccc(F)cc3F)c3ccnn3c2)ccn1` [Compound I-404, N-[4-(4-{[(2,4-difluorophenyl)sulfonyl]amino}pyrazolo[1,5-a]pyridin-6-yl)pyridin-2-yl]acetamide], the inhibition at 1.11 µM was found to be 94%.

Turning to `CC(=O)Nc1cc(-c2cncc(N3CCOc4cc(F)ccc4S3(=O)=O)c2)ccn1` [Compound I-405], the inhibition at 1.11 µM was > 99%.

For the molecule `Cc1nccc(Nc2cc(-c3cnc4c(c3)C(=O)NCC4)ccn2)n1` [Compound I-406, 3-[2-[(2-methylpyrimidin-4-yl)amino]-4-pyridyl]-7,8-dihydro-6H-1,6-naphthyridin-5-one], the inhibition at 1.11 µM came to 80%.

Consider `Cc1nccc(Nc2cc(-c3cc(NC(=O)N4CC(F)(F)C4)c4ccnn4c3)ccn2)n1` [Compound I-407, 3,3-difluoro-N-(6-{2-[(2-methylpyrimidin-4-yl)amino]pyridin-4-yl}pyrazolo[1,5-a]pyridin-4-yl)azetidine-1-carboxamide], for which the inhibition at 1.11 µM stood at 98%.

`Cc1nccc(Nc2cc(-c3cncc(C(=O)N4CC(F)(F)C4)c3)ccn2)n1` [Compound I-408, (3,3-difluoroazetidin-1-yl){2′-[(2-methylpyrimidin-4-yl)amino]-3,4′-bipyridin-5-yl}methanone]: the inhibition at 1.11 µM is > 99%.

On to `CC(=O)Nc1cc(-c2cnc(N)c(C(=O)NC(=N)N)c2)ccn1` [Compound I-409, 2′-acetamido-6-amino-N-carbamimidoyl-3,4′-bipyridine-5-carboxamide], for which the inhibition at 1.11 µM turned out to be 82%.

As to `CC(=O)Nc1cc(-c2cnc(Cl)c(S(=O)(=O)NC(C)(C)C)c2C)ccn1` [Compound I-410, N-[5-(tert-butylsulfamoyl)-6-chloro-4-methyl-3,4′-bipyridin-2′-yl]acetamide], the inhibition at 1.11 µM was found to be 96%.

A word on the inhibition: it is the percentage by which the read-out fell short of the control.
